A word on the pEC50: it is the negative decadic logarithm of the EC50, by convention in mol/L. Higher therefore signals a low EC50.

Our source for the EC50 values is publication PMC11745346 (Proceedings of the National Academy of Sciences of the …, 2024).

This assay has as its target Kv1.1 (Homo sapiens, UniProt Q09470). The assay can be described thus: two-electrode voltage clamp in Xenopus oocytes, reference opener. It counts as cell-based. For orientation: Two-electrode voltage clamp holds a large cell at a set potential and records current.

Each structure is given as a SMILES string. pEC50: −log10 of the molar value.

Sequence of Kv1.1 (Q09470 whole entry): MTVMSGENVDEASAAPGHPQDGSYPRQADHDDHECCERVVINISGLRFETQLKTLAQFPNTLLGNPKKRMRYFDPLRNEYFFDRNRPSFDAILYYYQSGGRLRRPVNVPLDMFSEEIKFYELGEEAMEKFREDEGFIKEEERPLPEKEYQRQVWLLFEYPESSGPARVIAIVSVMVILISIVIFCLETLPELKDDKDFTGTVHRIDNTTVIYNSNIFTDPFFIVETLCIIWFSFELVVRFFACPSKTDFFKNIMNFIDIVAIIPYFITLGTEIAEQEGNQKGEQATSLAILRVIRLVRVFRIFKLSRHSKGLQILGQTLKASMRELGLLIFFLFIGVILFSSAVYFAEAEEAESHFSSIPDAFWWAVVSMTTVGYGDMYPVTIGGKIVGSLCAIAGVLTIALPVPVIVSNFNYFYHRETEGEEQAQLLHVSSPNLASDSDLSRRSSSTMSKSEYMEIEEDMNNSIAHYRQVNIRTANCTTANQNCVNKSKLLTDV

Take `O=C(O)c1cccnc1Nc1cccc(C(F)(F)F)c1` [niflumic acid]: the pEC50 was 3.46.
